Assay [1] relates to Pseudomonas aeruginosa-derived endotoxin-induced keratitis. The assay is described as follows: Effect on endotoxin-induced keratitis (rabbit keratitis model, slit lamp scoring). Type of assay: in vivo. As for the experimental part: (§1) The effect of Compound A when given as eye drops was investigated in a rabbit keratitis model using an endotoxin derived from Pseudomonas aeruginosa detected frequently in an ophthalmic infection as well as in a rabbit corneal alkaline erosion model.
(§2) Male Japanese albino rabbits each weighing about 2 to 2.5 kg purchased from FUKUZAKI rabbit-raising association were used. Each animal was maintained at a temperature of 24±4° C. and a humidity of 55±15%.
(§3) Compound A was given as a 1.0% Compound A eye drop formulation prepared by suspending Compound A in a formulation base (0.1% NaH2PO4, 0.1% polysorbate 80 and 0.9% NaCl, pH 5.0). As a positive control, a 0.1% betamethasone eye drop formulation (Rinderon™ solution, Sionogi) was used. In a control group, the formulation base was given.
16 Male Japanese albino rabbits each weighing 2 to 2.5 kg were used. The rabbits were divided into four groups each having 4 animals, which were anesthetized systemically by an intramuscular administration each of 1 ml/kg of an equal volume mixture of 5% ketamine hydrochloride and 2% xylazine hydrochloride. Each 10 μl of a 1% solution of Pseudomonas aeruginosa-derived endotoxin in physiological saline was infused into each corneal stroma of a rabbit. An anterior part of an eye was observed using a slit lamp every 5 days over a period from the day after the endotoxin infusion through the 30th day, and examined for the corneal opacity, the corneal ulcer and the vascularization, which were scored in accordance with the criteria shown in Table 1. Each test substance was started to be instilled immediately after the endotoxin infusion, and then given 4 times a day in the volume of 20 μl every 2 hours.
(§4) Rabbit Keratitis Scoring Criteria
(§5) Corneal opacity^remarks 1)
(§6) * Vascularization^remarks 1)
(§7) 2: ⅔ or more of corneal circumference Remarks 1) Each as score A x score B

Assay [2] has as its system alkaline erosive keratitis. The assay is described as follows: Effects on alkaline erosive keratitis (rabbit corneal alkaline erosion model, slit lamp scoring). It counts as in vivo. The protocol:
as §1, §2, §3
16 Male Japanese albino rabbits each weighing 2 to 2.5 kg were used. The rabbits were divided into four groups each having 4 animals, which were anesthetized systemically by an intramuscular administration each of 1 ml/kg of an equal volume mixture of 5% ketamine hydrochloride and 2% xylazine hydrochloride and also locally by an instillation of oxybuprocaine hydrochloride. A filter paper whose diameter was 10 mm and which had been immersed in 2N NaOH was brought into contact with the center of the right cornea of a rabbit for 1 minute to establish an alkaline erosion, and then the eye was rinsed immediately with 10 mL or more of physiological saline. The depth of the corneal ulcer and the vascularization were observed using a slit lamp every 5 days over a period from 5 days after the alkaline erosion through the 30th day, and scored in accordance with the criteria shown in Table 1. Each test substance was started to be instilled immediately after the alkaline erosion, and then given 4 times a day in the volume of 20 μl every 2 hours.
as §4, §5, §6, §7

Assay [3] has as its system Pseudomonas aeruginosa strain No. ho-134 corneal ulcer. The assay is described as follows: Effects on pyocyanic corneal ulcer (inoculation of Pseudomonas aeruginosa into corneal stroma, corneal ulcer score). It counts as in vivo, rabbit. The settings on record: 50 μl four times a day. The protocol: Male Japanese albino rabbits each weighing about 2 kg purchased from KITAYAMA LABE S CO., LTD. were used. Each animal was maintained at a temperature of 23±3° C. and a humidity of 55±10%.
Compound A was given as a 1.0% Compound A eye drop formulation prepared by suspending Compound A in a formulation base (0.1% sodium acetate, 0.1% polysorbate 80 and 0.9% NaCl, pH 5.0). A 0.3% lomefloxacin (LFLX) hydrochloride was used as an. is antibacterial agent, and physiological saline *was used as a control.
After instilling 0.4% oxybuprocaine hydrochloride for a local anesthesia, a nictitating membrane was excised.
A causative microorganism used was a clinical isolate Pseudomonas aeruginosa strain No. ho-134. A rabbit was anesthetized systemically with 5% ketamine hydrochloride and 2% xylazine hydrochloride (equal volume mixture), and then inoculated by an infusion of 30 μl of a 3.9×10^4 CFU/ml cell suspension (1.17×10^3 CFU/cornea) using a 100 μl microsyringe fitted with a 30G needle into one corneal stroma of a rabbit.
An animal which had received an infusion of the cell suspension into the corneal stroma and whose inoculation was surely successful was grouped into one of [1] physiological saline instillation group (control, n=6) and [2]1.0% Compound A instillation group (Compound A group, n=6) as groups whose therapy was started immediately after the inoculation, and [3]1.0% Compound A instillation group (late Compound A group, n=5), [4]0.3% LFLX instillation group (LFLX group, n=6) and [5]1.0% Compound A instillation—0.3% LFLX instillation combination group (Compound A—LFLX combination group, n=6) as groups whose therapy was started 1 day after the inoculation (after onset of corneal ulcer), and 50 μl of each substance was given four times a day immediately after the inoculation or 1 day after the inoculation (after onset of corneal ulcer). […]
Each animal was examined for the corneal ulcer every 24 hours after the inoculation and scored in accordance with the rabbit corneal lesion scoring criteria (Barletta J. P. et al., Invest Ophthalmol Vis Sic 37:20-28, 1996) shown in Table 2. […]

The mark [4] stands for this setting: instillation started 1 day after the inoculation (after onset of corneal ulcer), vs physiological saline (FIG. 9).

Molecules are shown by their SMILES. Counter-ions that a name gives are not always drawn.

For the compound `CC(C)(C)C(=O)Oc1ccc(S(=O)(=O)Nc2ccccc2C(=O)NCC(=O)[O-])cc1.O.O.O.O.[Na+]` [Compound A, N-[o-(p-pivaloyloxybenzenesulfonyl-amino)benzoyl]glycine monosodium salt tetrahydrate], the “effect on corneal opacity” value in assay [1] (5 to 30 days after endotoxin infusion, 1.0% eye drop, 4 times a day, vs control group (FIG. 1)) is recorded as “inhibitory effects were observed”; in assay [2] (5 to 30 days after corneal alkaline exposure, 1.0% eye drop, 4 times a day (FIG. 5)) it was “no effects were noted”. Also, the “effect on corneal ulcer” value is reported as “inhibitory effects were observed” in assay [1] (5 to 30 days after endotoxin infusion, 1.0% eye drop, 4 times a day, vs control group (FIG. 2)) and “significant inhibitory effect” in assay [2] (20th day after corneal alkaline exposure, 1.0% eye drop, 4 times a day (FIG. 6)). The effect on vascularization entry in assay [1] (5 to 30 days after endotoxin infusion, 1.0% eye drop, 4 times a day, vs control group (FIG. 3)) was “inhibitory effects were observed”; in assay [2] (5 to 30 days after corneal alkaline exposure, 1.0% eye drop, 4 times a day (FIG. 7)), “no effects were noted”. For the same compound, the “% inhibition of total keratitis score compared with the control group” value in assay [1] (15th day after endotoxin infusion, 1.0% eye drop, 20 μl 4 times a day, statistically significant difference (FIG. 4)) is listed as 59.4%. The corneal ulcer formation result in assay [3] (setting [4]) is on record as “corneal ulcer formation was started to be inhibited 3 days after the inoculation”; in assay [3] (instillation started immediately after the inoculation, vs physiological saline, statistically significant difference (FIG. 8)) it was “corneal ulcer formation was started to be inhibited 3 days after the inoculation”.

As to `CCn1cc(C(=O)O)c(=O)c2cc(F)c(N3CCNC(C)C3)c(F)c21` (stereo not drawn) [LFLX, lomefloxacin (LFLX) hydrochloride, reference compound], the corneal ulcer formation entry in assay [3] (setting [4]) is “no inhibition of the corneal ulcer formation”.

As for `C[C@H]1C[C@H]2[C@@H]3CCC4=CC(=O)C=C[C@]4(C)[C@@]3(F)[C@@H](O)C[C@]2(C)[C@@]1(O)C(=O)COP(=O)(O)O` [betamethasone phosphate, reference compound], the “onset of the keratitis” value in assay [1] (over the observation period (5 to 30 days), 0.1% eye drop, 4 times a day, positive control) was “inhibited almost completely”. In assay [2] (15th day after corneal alkaline exposure, 0.1% eye drop, 4 times a day, positive control), the effect on vascularization entry is recorded as “significant inhibitory effect”.

The values above are taken from patent US6624193B1, “Preventive and therapeutic agents for eye diseases” (Ono Pharmaceutical Co., Ltd., priority 1999, dated 2003).
